Results from patent US20260042764A1, “COMPOSITIONS AND METHODS FOR INHIBITION OF KRAS” (TheRas, Inc., priority 2022, published 2026).

Columns and labels:
H358 cells (KRAS G12C) = assay: 3D Cell viability assay in H358 cells (Biological Example 6); assay type: cell-based; conditions: H358 (KRAS G12C) spheroids, 72 hours
Protocol: (§1) Biological Example 6: 3D Cell viability assay in AsPC-1, SW1900, HPAC, Capan-2, RKN, H358, HCT116, KP-2, H1573, A549, MKN1, and HT1080 cells
(§2) The inhibition of cellular viability as a result of test compound treatment in a spheroid assay was measured using the CellTiter-Glow 3D Cell Viability Assay (Promega).
(§3) On Day 1, 1000 cells per well were seeded in 150 μL of complete growth media supplemented with 10% fetal bovine serum (FBS) and incubated at 37° C., in the presence of 5% CO2 in 96-well ultra-low attachment microplates (Corning) for 48 hours undisturbed to allow spheroids to form.
(§4) Following spheroid formation, cells were treated with compounds diluted in DMSO at 0.25% final DMSO concentration. Compounds were dosed in a 9-point concentration curve with three-fold dilution between concentrations. Cells were incubated in the presence of compound for 72 hours at 37° C., in the presence of 5% CO2.
(§5) Following this incubation period, the kit-provided CTG reagent was allowed to equilibrate for 30 minutes at room temperature, 150 μL of equilibrated CTG reagent was added to each well, and the plate was sealed before shaking at 250 rpm for 10 minutes at room temperature to lyse the cells, 150 μL of lysate per well was transferred to a 96-well plate and luminescence was read on a CLARIOstar plate reader.
(§6) Data was imported into the Prism software package (Graphpad) and EC50 values were calculated using the log (inhibitor) vs, response—variable slope (Four parameters) model.

SW1900 cells (KRAS G12D) [1] = assay: 3D Cell viability assay in SW1900 cells (Biological Example 6); assay type: cell-based; conditions: SW1990 (text: SW1900, KRAS G12D) spheroids, 72 hours
Protocol: as §1, §2, §3, §4, §5, §6

SW1900 cells (KRAS G12D) [2] = assay: Cell-based pERK HTRF assay in SW1900 cells (Biological Example 5)
Protocol: (§7) Biological Example 5: Cell-based PERK HTRF assay in AsPC-1, SW1900, HPAC, Capan-2, RKN, H358, HCT116, KP-2, H1573, A549, MKN1, and HT1080 cells
(§8) The inhibition of ERK phosphorylation, as measured using the HTRF Advanced Phospho-ERK 1/2 (Thr202/Tyr204) Detection Assay kit (Perkin Elmer), was used to determine the effectiveness of test compounds in disrupting KRAS-driven protein/effector signaling in cells.
(§9) On day 1, cells were seeded into 96-well plates at 2.5×10^4 cells/well in 100 μL of complete growth media supplemented with 10% fetal bovine serum (FBS) and incubated at 37° C., in the presence of 5% CO2.
(§10) On day 2, cells were treated with compounds diluted in DMSO at 0.25% final DMSO concentration. Compounds were dosed in a 9-point concentration curve with three-fold dilution between concentrations. Cells were incubated in the presence of compound for two hours at 37° C. Following this treatment period, cells were harvested by aspirating the media, adding 40 μL of kit-supplied 1x lysis buffer per well, and shaking for 30 minutes at 250 rpm at room temperature.
(§11) Following cell lysis, samples were homogenized by pipetting up and down twenty times and 16 μL of cell lysate per well was transferred from the 96-well cell culture plate to two wells of a 384-well detection plate. A complete detection buffer was prepared by diluting D2 and Eu Cryptate antibodies 1:20 in kit-provided detection solution, 4 μL of complete detection buffer was then added to each well with lysate. Plates were incubated with gentle rocking for 24 hours at 4° C.
(§12) Following this incubation period, plates were centrifuged at 500×g for one minute and analyzed on a CLARIOstar plate reader. Data was imported into Microsoft Excel and the signal from the 665 nm channel was divided by the signal from the 620 nm channel. % pERK was calculated as: […]
(§13) Data was imported to the Prism software package (Graphpad) and EC50 values were calculated using the log (inhibitor) vs, response—variable slopc (Four parameters) model.

AsPC-1 cells (KRAS G12D) = assay: 3D Cell viability assay in AsPC-1 cells (Biological Example 6); assay type: cell-based; conditions: AsPC-1 (KRAS G12D) spheroids, 72 hours
Protocol: as §1, §2, §3, §4, §5, §6

RKN cells (KRAS G12V) = assay: 3D Cell viability assay in RKN cells (Biological Example 6); assay type: cell-based; conditions: RKN (KRAS G12V) spheroids, 72 hours
Protocol: as §1, §2, §3, §4, §5, §6

[3] = tested on: MKN1 cells (KRAS amplification); assay: Cell-based pERK HTRF assay in MKN1 cells (Biological Example 5)
Protocol: as §7, §8, §9, §10, §11, §12, §13

[4] = tested on: MKN1 cells (KRAS amplification); assay: 3D Cell viability assay in MKN1 cells (Biological Example 6); assay type: cell-based; conditions: MKN (MKN1, KRAS amplification) spheroids, 72 hours
Protocol: as §1, §2, §3, §4, §5, §6

[5] = Homo sapiens, SW1990, SW1990 cells (text: SW1900, KRAS G12D)
[6] = Homo sapiens, MKN-1, MKN cells (MKN1, KRAS amplification)

Compound | IC50 (H358 cells (KRAS G12C); Homo sapiens, NCI-H358) | IC50 (SW1900 cells (KRAS G12D) [1]; Homo sapiens) | IC50 (SW1900 cells (KRAS G12D) [2]; [5]) | IC50 (AsPC-1 cells (KRAS G12D); Homo sapiens, ASPC1) | IC50 [3, 6] | IC50 ([4]; Homo sapiens, MKN-1) | IC50 (H358 cells (KRAS G12C)) | IC50 (SW1900 cells (KRAS G12D) [1]) | IC50 (SW1900 cells (KRAS G12D) [2]; SW1990 cells (text: SW1900, KRAS G12D)) | IC50 (AsPC-1 cells (KRAS G12D)) | IC50 ([3]; MKN cells (MKN1, KRAS amplification)) | IC50 [4] | IC50 (RKN cells (KRAS G12V))
C[C@@H]1[C@H](N(C)c2nc(OC[C@@]34CCCN3C[C@H](F)C4)nc3c(F)c(-c4ccc(F)c5sc(N)c(C#N)c45)c(C(F)(F)F)cc23)CC(=O)N1C [Compound 440] | 100 to 1000 nM | ≤ 100 nM | ≤ 100 nM | ≤ 100 nM | ≤ 100 nM | ≤ 100 nM |  |  |  |  |  |  | ≤ 100 nM
N#Cc1c(N)sc2c(F)ccc(-c3c(C(F)(F)F)cc4c(N5CC6CC(C5)O6)nc(OC[C@@]56CCCN5C[C@H](F)C6)nc4c3F)c12 (single isomer, unassigned) [Compound 275] | ≤ 100 nM | ≤ 100 nM | ≤ 100 nM | > 1000 nM | ≤ 100 nM | ≤ 100 nM |  |  |  |  |  |  | ≤ 100 nM
C[C@H]1Cn2nc(C(=O)N(C)C)cc2CN1c1nc(OC[C@@]23CCCN2C[C@H](F)C3)nc2c(F)c(-c3ccc(F)c4sc(N)c(C#N)c34)c(C(F)(F)F)cc12 (atropisomer, axis not shown) [Compound 610] | ≤ 100 nM | ≤ 100 nM | ≤ 100 nM | ≤ 100 nM | ≤ 100 nM | ≤ 100 nM |  |  |  |  |  |  | ≤ 100 nM
Cc1c(C(=O)N(C)C)nn2c1CN(c1nc(OC[C@@]34CCCN3C[C@H](F)C4)nc3c(F)c(-c4ccc(F)c5sc(N)c(C#N)c45)c(C(F)(F)F)cc13)CC2 (atropisomer, axis not shown; (aS)) [Compound 590, 5-((S)-7-(2-amino-3-cyano-7-fluorobenzo[b]thiophen-4-yl)-8-fluoro-2-(((2R,7aS)-2-fluorotetrahydro-1H-pyrrolizin-7a(5H)-yl)methoxy)-6-(trifluoromethyl)quinazolin-4-yl)-N,N,3-trimethyl-4,5,6,7-tetrahydropyrazolo[1,5-a]pyrazine-2-carboxamide] |  |  |  |  |  |  | ≤ 100 nM | ≤ 100 nM | ≤ 100 nM | ≤ 100 nM | ≤ 100 nM | ≤ 100 nM | ≤ 100 nM
N#Cc1cnn2c1CN(c1nc(OC[C@@]34CCCN3C[C@H](F)C4)nc3c(F)c(-c4ccc(F)c5sc(N)c(C#N)c45)c(C(F)(F)F)cc13)CC2 [Compound 392] | ≤ 100 nM | ≤ 100 nM | ≤ 100 nM | ≤ 100 nM | ≤ 100 nM | ≤ 100 nM |  |  |  |  |  |  | ≤ 100 nM

Continued, in another order:

IC50 (H358 cells (KRAS G12C); Homo sapiens, NCI-H358) | IC50 (SW1900 cells (KRAS G12D) [1]; Homo sapiens) | IC50 (SW1900 cells (KRAS G12D) [2]; [5]) | IC50 (AsPC-1 cells (KRAS G12D); Homo sapiens, ASPC1) | IC50 [3, 6] | IC50 ([4]; Homo sapiens, MKN-1) | IC50 (H358 cells (KRAS G12C)) | IC50 (SW1900 cells (KRAS G12D) [1]) | IC50 (SW1900 cells (KRAS G12D) [2]; SW1990 cells (text: SW1900, KRAS G12D)) | IC50 (AsPC-1 cells (KRAS G12D)) | IC50 ([3]; MKN cells (MKN1, KRAS amplification)) | IC50 [4] | Compound | IC50 (RKN cells (KRAS G12V))
≤ 100 nM | ≤ 100 nM | ≤ 100 nM | ≤ 100 nM | ≤ 100 nM | ≤ 100 nM |  |  |  |  |  |  | CCN(c1nc(OC[C@@]23CCCN2C[C@H](F)C3)nc2c(F)c(-c3ccc(F)c4sc(N)c(C#N)c34)c(C(F)(F)F)cc12)[C@H]1CCN(C(=O)C2CC2)[C@@H]1C (atropisomer, axis not shown) [Compound 579] | ≤ 100 nM
≤ 100 nM | ≤ 100 nM | ≤ 100 nM | ≤ 100 nM | ≤ 100 nM | ≤ 100 nM |  |  |  |  |  |  | CCN(c1nc(OC[C@@]23CCCN2C[C@H](F)C3)nc2c(F)c(-c3ccc(F)c4sc(N)c(C#N)c34)c(C(F)(F)F)cc12)[C@H]1C[C@H](COC)N(C(=O)C2CC2)C1 (atropisomer, axis not shown) [Compound 696] | ≤ 100 nM
≤ 100 nM | ≤ 100 nM | ≤ 100 nM | ≤ 100 nM | ≤ 100 nM | ≤ 100 nM |  |  |  |  |  |  | CCN(c1nc(OC[C@@]23CCCN2C[C@H](F)C3)nc2c(F)c(-c3ccc(F)c4sc(N)c(C#N)c34)c(C(F)(F)F)cc12)[C@H]1C[C@H](C)N(C(=O)N2CC(OC)C2)C1 (atropisomer, axis not shown) [Compound 764] | ≤ 100 nM
≤ 100 nM | ≤ 100 nM | ≤ 100 nM | ≤ 100 nM | ≤ 100 nM | ≤ 100 nM |  |  |  |  |  |  | CCN(c1nc(OC[C@@]23CCCN2C[C@H](F)C3)nc2c(F)c(-c3ccc(F)c4sc(N)c(C#N)c34)c(C(F)(F)F)cc12)[C@@H]1CCN(C(C)=O)C1 [Compound 268] | ≤ 100 nM
